In patent US10034886B2, “GLP-1 receptor modulators” (Celgene International II SÀRL, priority 2014, dated 2018) one finds EC50 data, which are given here for 19 molecules.

SMILES strings stand for the structures.

The target in the experiment is T1, GLP-1R (Homo sapiens, UniProt P43220).
T1 construct: host or cells: GLP-1R CRE-bla CHO-K1 cells
T1 sequence (P43220 24-463): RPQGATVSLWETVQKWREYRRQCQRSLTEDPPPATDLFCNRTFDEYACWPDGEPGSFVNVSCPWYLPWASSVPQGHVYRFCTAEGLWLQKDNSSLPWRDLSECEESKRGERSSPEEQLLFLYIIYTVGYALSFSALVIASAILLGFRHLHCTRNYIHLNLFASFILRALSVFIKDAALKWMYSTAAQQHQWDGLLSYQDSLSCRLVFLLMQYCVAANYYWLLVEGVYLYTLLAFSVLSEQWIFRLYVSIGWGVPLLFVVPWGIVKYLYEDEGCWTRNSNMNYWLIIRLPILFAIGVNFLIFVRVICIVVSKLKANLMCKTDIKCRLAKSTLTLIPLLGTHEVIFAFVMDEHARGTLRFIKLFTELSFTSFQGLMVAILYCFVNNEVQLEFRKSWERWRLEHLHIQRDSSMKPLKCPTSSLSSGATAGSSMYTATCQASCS
T1 sequence (P01275 100-127 partner limits assumed): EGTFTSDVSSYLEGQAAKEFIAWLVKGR
In words: EC20 GLP-1(9-36) PAM cAMP assay: dose response of compound in the presence of fixed concentration of GLP-1(9-36). It is filed as cell-based. Conditions: dose response of compound in presence of fixed concentration of GLP-1(9-36), GLP-1R CRE-bla CHO-K1 cells, read-out: EC20 GLP-1(9-36) PAM EC50. On the procedure:
EC20 GLP-1(9-36) PAM cAMP Assay: Dose Response of Compound in the Presence of Fixed Concentration of GLP-1 (9-36).
GLP-1R CRE-bla CHO-K1 cells cultured in growth medium (DMEM-High glucose, 10% dialyzed FBS, 0.1 mM NEAA, 25 mM Hepes, 100 U/mL penicillin/100 μg/mL streptomycin, 5 μg/mL Blasticidin, 600 μg/mL Hygromycin) were trypsinized and plated in suspension into 384 well white flat bottom plates at 5000 cells/well in 12 μL assay buffer (Hanks Balanced Salt solution, 10 mM hepes, 0.1% BSA, pH 7.4). A 5× compound dose response curve (12-point) was generated in assay buffer containing 1.5 mM IBMX, 4% DMSO. GLP-1(9-36) was diluted to 4.2 μM in assay buffer containing 1.5 mM IMBX and 4% DMSO. The 5× compound dose response was added (3 μL), followed by 0.5 μL of GLP-1(9-36) and cells were incubated for 30 min at 37° C. Direct detection of cAMP was carried out using DiscoveRx HitHunter cAMP kit according to manufacturer's instructions and luminescence was read using a SpectraMax M5 plate reader. Luminescence was converted to total cAMP using a cAMP standard curve and data was analyzed by non-linear regression to determine the EC50 and Emax.
GLP-1(7-36): […]-NH2 (SEQ ID NO: 2). GLP-1(9-36): […]-NH2 (SEQ ID NO: 3). GLP-1(7-36) was purchased from GenScript. GLP-1(9-36) was purchased from Biopeptide Co., Inc.
The EC20GLP-1(9-36) PAM Activity range is denoted as follows: + denotes activity <0.8 μM, ++ denotes activity between 0.8 and 2.5 μM, +++ denotes activity between 2.5 and 5 μM, and ++++ denotes activity 5 to 10 μM.
On the technique in general: Changes in cAMP serve as a functional read-out for many G protein-coupled receptors.
Turning to `CCCCCCCOc1ccc(-c2cnc(-c3ccc(C[C@H](NC(=O)c4ccc(C(C)(C)C)s4)C(=O)NCC(C)O)cc3)nc2)cc1` (stereo partly shown) [Compound 388], the EC50 was 2.5 to 5 µM. In the case of `CCCCCCCOc1ccc(-c2cnc(-c3ccc(C[C@H](NC(=O)c4ccc(C(C)(C)C)s4)C(=O)NCCNC(C)=O)cc3)nc2)cc1` [Compound 389], the concentration for a half-maximal effect (EC50) was 0.8 to 2.5 µM.

As to `CCCCCCCOc1ccc(-c2cnc(-c3ccc(C[C@H](NC(=O)c4ccc(C(C)(C)C)s4)C(=O)NCC4CCNC4)cc3)nc2)cc1` (stereo partly shown) [Compound 390], the EC50 was 0.8 to 2.5 µM. Regarding `CC(C)(C)c1ccc(-c2cnc(-c3ccc(CC(NC(=O)c4ccc(C(C)(C)C)s4)C(=O)O)cc3F)nc2)cc1` (stereo not shown) [Compound 391], the EC50 fell in the range of 2.5 to 5 µM. Regarding `CCCCCCCOc1ccc(-c2cnc(-c3ccc(C[C@H](NC(=O)c4ccc(C(C)(C)C)s4)C(=O)N[C@H](CN)C(=O)O)cc3)nc2)cc1` [Compound 392], the concentration giving a half-maximal response (EC50) lay in the range of 2.5 to 5 µM. Then `CCCCCCCOc1ccc(-c2cnc(-c3ccc(C[C@H](NC(=O)c4ccc(C(C)(C)C)s4)C(=O)N[C@@H](CCCN)C(=O)O)cc3)nc2)cc1` [Compound 393], with 0.8 to 2.5 µM; and `CCCCCCCOc1ccc(-c2cnc(-c3ccc(C[C@H](NC(=O)c4ccc(C(C)(C)C)s4)C(=O)N[C@@H](CN)C(=O)O)cc3)nc2)cc1` [Compound 394], with 2.5 to 5 µM; and `CCCCCCCOc1ccc(-c2cnc(-c3ccc(C[C@H](NC(=O)c4ccc(C(C)(C)C)s4)C(=O)NC4(C(=O)O)CCCC4)cc3)nc2)cc1` [Compound 395], with 0.8 to 2.5 µM.

For the molecule `CCCCCCCOc1ccc(-c2cnc(-c3ccc(C[C@H](NC(=O)c4ccc(C(C)(C)C)s4)C(=O)NC(C(=O)O)C4CCOCC4)cc3)nc2)cc1` (stereo partly shown) [Compound 396], the concentration for a half-maximal effect (EC50) was under 0.8 µM. As for `CCCCCCc1nnc(-c2cnc(-c3ccc(C[C@H](NC(=O)c4ccc(C(C)(C)C)cc4)C(=O)O)cc3)nc2)s1` [Compound 397, (S)-2-(4-(tert-butyl)benzamido)-3-(4-(5-(5-hexyl-1,3,4-thiadiazol-2-yl)pyrimidin-2-yl)phenyl)propanoic acid], the concentration giving a half-maximal response (EC50) was in the range of 2.5 to 5 µM. Consider `CCCCCCCOc1ccc(-c2cnc(-c3ccc(C[C@H](NC(=O)c4ccc(C(C)(C)C)cc4)C(=O)N[C@H](C)C(=O)O)cc3)nc2)cc1` [Compound 398, (R)-2-((S)-2-(4-(tert-butyl)benzamido)-3-(4-(5-(4-(heptyloxy)phenyl)pyrimidin-2-yl)phenyl)propanamido)propanoic acid], for which the EC50 is under 0.8 µM. Turning to `CCCCCCCOc1ccc(-c2cnc(-c3ccc(C[C@H](NC(=O)c4ccc(C(C)(C)C)cc4)C(=O)N[C@@H](CCC(N)=O)C(=O)O)cc3)nc2)cc1` [Compound 399], the concentration for a half-maximal effect (EC50) was under 0.8 µM. Then `CCCCCCCOc1ccc(-c2cnc(-c3ccc(C[C@H](NC(=O)c4ccc(C(C)(C)C)cc4)C(=O)N[C@@H](C)C(=O)O)cc3)nc2)cc1` [Compound 400], with under 0.8 µM; and `CCCCCCCOc1ccc(-c2cnc(-c3ccc(C[C@H](NC(=O)c4ccc(C(C)(C)C)s4)C(=O)N[C@@H](CC)C(=O)O)cc3)nc2)cc1` [Compound 401], with under 0.8 µM; and `CCCCCCCOc1ccc(-c2cnc(-c3ccc(C[C@H](NC(=O)c4ccc(C(C)(C)C)s4)C(=O)N[C@H](CC)C(=O)O)cc3)nc2)cc1` [Compound 402], with under 0.8 µM. Take `CCCCCCCOc1ccc(-c2cnc(-c3ccc(C[C@H](NC(=O)c4ccc(C(C)(C)C)s4)C(=O)N[C@@H](CCC)C(=O)O)cc3)nc2)cc1` [Compound 403]: the concentration for a half-maximal effect (EC50) fell in the range of 0.8 to 2.5 µM. With `CCCCCCCOc1ccc(-c2cnc(-c3ccc(C[C@H](NC(=O)c4ccc(C(C)(C)C)s4)C(=O)N[C@@H](C(=O)O)C4CC4)cc3)nc2)cc1` [Compound 404], the EC50 was under 0.8 µM. Then `CCCCCCCOc1ccc(-c2cnc(-c3ccc(C[C@H](NC(=O)c4ccc(C(C)(C)C)s4)C(=O)N[C@H](C(=O)O)C4CC4)cc3)nc2)cc1` [Compound 405], with under 0.8 µM; and `CCCCCCCOc1ccc(-c2cnc(-c3ccc(C[C@H](NC(=O)c4ccc(C(C)(C)C)s4)C(=O)NC(C)(C)C(=O)O)cc3)nc2)cc1` [Compound 406], with 0.8 to 2.5 µM.

The term EC50 denotes the concentration needed to bring the measured effect to its halfway point.
